Where a SMILES comes first, the peptide text is derived from it. The star is where a group is joined. Daunorubicin(13-NOCH2CO) = COc1cccc2c1C(=O)c1c(O)c3c(c(O)c1C2=O)C[C@@](O)(C(C)=NOCC(=O)*)C[C@@H]3O[C@H]1C[C@H](N)[C@H](O)[C@H](C)O1
How the values were obtained:
PANC-1 cells [1] = assay: Flow cytometric cell surface binding and internalization; assay type: cell-based, human; settings: 10^-5 M, flow cytometry, mean of 2 parallels ± SD
Description: Cell surface binding and internalization of the conjugates were performed by flow cytometry (FACS-Calibur, Becton Dickinson, San Jose, CA, USA) based on the detection of the fluorescence activity of Dau (λex = 488 nm, λem = 585 nm) linked to the peptides. Studies of binding and uptake were performed on PANC-1 cells.
Cells were seeded (2.5 × 10^5 cells/mL, 900 μL/well) on 12-well plates, 24 h prior to the treatment with conjugates and free Dau. To distinguish the cell surface binding and internalization of conjugates, the cells were treated with the conjugate solutions at a final concentration of 10^−5 M at two temperatures (37 °C and 4 °C) in parallel. After the incubation period of 30 min, cells were washed with PBS and were removed from the plate using TrypLE (Thermo Fisher Scientific, Waltham, MA, USA) cell-dissociation reagent, thus avoiding cell surface protein degradation. […] After the centrifugation of the cell suspension, the cell pellets were resuspended in PBS (400 μL/tube) and the samples were measured by a flow cytometer.
To determine the fluorescence intensity and to evaluate the results CellQuest Pro (Becton Dickinson) and Flowing2.5.1. […] The instrument determines the relative fluorescence intensity of Dau built in the conjugates as geometric mean channel (GeoMean) value. […]

PANC-1 cells [2] = assay: Colorimetric (alamarBlue) cytotoxicity on PANC-1; assay type: cell-based; settings: Homo sapiens, concentration needed to decrease the cell viability by 50%, read-out: IC50 (colorimetry)
Description: (§1) The protocol for the alamarBlue-assay was similar to the method which was published earlier, with some minor modifications. Briefly, the cell seeding occurred on 96-well cell culture plates (Sarstedt AG, Nümbrecht, Germany) at 10^4 cells/well concentration. After a 24 h long culturing period, the treatment was carried out with the conjugates at 10^−4, 10^−5 and 10^−6 M final concentrations for 24, 48 and 72 h. In the next steps, the alamarBlue reagent (0.15 mg/mL, Sigma-Aldrich) dissolved in phosphate-buffered saline (PBS; pH = 7.2), was added to the wells. After 6 h incubation with the reagent, the fluorescence intensity of the samples was obtained by an LS-50B Luminescence Spectrometer (Perkin Elmer Ltd., Buckinghamshire, UK) or a Fluoroskan^TM FL Microplate Fluorometer and Luminometer (Thermo Scientific, Waltham, MA, USA) by using the following settings: λex = 560 nm and λem = 590 nm.
Three parallels were performed per treatment group. […] Fluorescence intensities of the samples treated with various concentrations of conjugates were expressed as a percentage of the fluorescence of control.
To confirm that the different methods can be used to compare the effects of conjugates on the different model cells, the cytotoxicity of Dau was measured by both impedimetric and colorimetric methods on PANC-1 cells.

[3] = in vivo; cited from earlier work
Excerpt: Daunomycin (Dau) was applied as a payload. It was indicated in our previous research that Dau can be attached to peptides via oxime linkage easily with good yields. […] It might be because of the lower DNA binding affinity of the Dau containing metabolite compared to Dau. However, the oxime linked conjugates are stable in the circulation and no loss of Dau can be observed before reaching the target cells.

PANC-1 cells [4] = assay: cells; assay type: cell-based, human
Description: This measurement is based on the registration of electrical resistance (impedance, Z) in alternating current (AC) field. The living cells transplanted to the gold measuring electrodes are physically insulated by phospholipid bilayer that covers them. This instrumentally measurable property changes (decreases) in response to cellular cytotoxic agents. Our measurements were performed on xCELLigence single plate (ACEA Biosciences, San Diego, CA, USA) dedicated for impedimetric analysis of cellular samples at 37 °C and 5% CO2.
During the initial phase of the experiments—the baseline recording—a special 96-well cell culture plate, E-plate (ACEA Biosciences), equipped with measuring electrodes, was pretreated with freshly prepared cell culture medium (for 60 min; sampling frequency: 1 min). Subsequently, PANC-1 cells were plated at a cell density of 10^4 cells/well. During the 24 h incubation, the cells evenly covered the electrodes at the bottom of the wells of the E-plate. The resulting confluent cell cultures were then treated with the test substances at the following final concentrations: 10^−6, 10^−5, 10^−4 M. Total treatment duration was 72 h and the sampling rate was 1 min (0–24 h); and then 15 min (48–72 h). In our measurements, three replicates were used, the control was the drug-free medium. […] The CI results were analyzed with xCELLigence RTCA 2.0 software and Origin Pro 8.0 software.

[5] = tested on: s.c. PANC-1 human pancreatic carcinoma; assay: Subcutaneous PANC-1 human pancreatic cancer mouse model; assay type: in vivo, SCID mice
Description: For establishing pancreatic tumor in experimental animals, PANC-1 cells were used, which were cultured in RPMI 1640 medium (Lonza), supplemented with 10% heat-inactivated FBS (Biosera, Nuaille, France), and 1% penicillin/streptomycin (Lonza). They were cultured in sterile T175 flasks (Sarstedt AG) with a ventilation cap at 37 °C in a humidified atmosphere with 5% CO2.
Pancreatic cancer (PANC-1) cells were injected into SCID male mice (22–34 g) subcutaneously (s.c.), 3 × 10^6 cells per animal in 200 µL M199 (Sigma-Aldrich) per animal. The (i.p.) administration of treatment started 10 days after cells inoculation when the average tumor volume was 36 mm^3. Four groups with 7 animals per group were established and treated. The doses and schedule were as follows: control group was treated with sterile water used for the solubilization of Dau and the conjugates, while animals in the group administered with free Dau were treated on days 10, 19 and 24 after cell inoculation with a dose of 1 mg/kg. Mice administered with the conjugate 4 were separated in two groups and treated either with a dose of 10 mg/kg Dau-content (21.6 mg/kg conjugate) or with a dose of 2 mg/kg Dau-content (4.3 mg/kg conjugate) on days 10, 13, 19, 21, 24, 28, 31, 34, 39, 42, 46, 49, 53, 56, 60, 63, 67 and 70 after cells inoculation. Animal weight and tumor volumes were measured initially when the treatment started and at periodic intervals according to the treatment schedule. A digital caliper was used to measure the longest (a) and the shortest diameter (b) of a given tumor. The tumor volume was calculated using the formula V = ab^2 × π/6, where a and b represent the measured parameters (length and width). The experiment was terminated on day 74 after cells inoculation (day 65 of treatment). Animals treated with free Dau had to be terminated after 3 treatments on day 28 after cells inoculation (day 19 of treatment) due to significant weight-loss. Animals were sacrificed by cervical dislocation; primary tumors and livers were harvested and weighted.

EBC-1 cells = assay type: cell-based, human; settings: 1e-5 M
Description: (§2) EBC-1 and Colo-205 model cells have weak/negligible adherent properties, and A2058 cells could not produce constant cell index values. Therefore, a colorimetric assay (alamarBlue-assay) was chosen instead of the xCELLigence system to investigate the viability of these model cells treated with the conjugates. Due to the growth characteristics of NHDF cells, alamarBlue-assay was performed also on this cell line.
as §1
(§3) Three parallels were performed per treatment group. In the case of controls, an equivalent volume of cell culture media was added to the cell. Fluorescence intensities of the samples treated with various concentrations of conjugates were expressed as a percentage of the fluorescence of control.

Colo-205 cells = assay type: cell-based, human; settings: 1e-5 M
Description: as §2, §1, §3

A2058 cells = assay type: cell-based, human; settings: 1e-5 M
Description: as §2, §1, §3

[6] = Acute and chronic toxicity in healthy mice; assay type: in vivo; settings: healthy Balb/c male mice, 3 per group; i.p.; acute 3.125, 6.25, 12.5, 25 mg/kg Dau-content single; chronic 10 mg/kg Dau-content on days 1, 3, 7, 9, 11; 14 days
Description: Prior to the determination of in vivo antitumor activity, the acute and chronic toxicity studies of conjugate 4 (Dau=Aoa-GFLG-K(Dau=Aoa)-SKAAKN-OH) were investigated. Healthy Balb/c male mice (3 animals in each group with 29–33 g body weight) were used for these experiments. The conjugate was dissolved in sterile water for injection (Pharmamagist Kft., Budapest, Hungary) and injected in a volume of 0.1 mL/10 g body weight using the appropriate concentrations. In acute toxicity study, intraperitoneal (i.p.) administration of the conjugate 4 was carried out in 4 different doses: 3.125, 6.25, 12.5 and 25 mg/kg Dau-content. In chronic toxicity study, mice were treated with a dose of 10 mg/kg Dau-content of the conjugate on days 1, 3, 7, 9 and 11 (5 treatments). The toxicity was evaluated on the basis of life span, behavior and looking of the mice, as well as body weight. These parameters were followed for 14 days.

SMILES	Relative fluorescence intensity (GeoMean values), Cellular uptake (PANC-1 cells [1]; 30 min, GeoMean at 37 °C minus GeoMean at 4 °C)	Relative fluorescence intensity (GeoMean values), Binding (PANC-1 cells [1]; 30 min at 4 °C, Dau fluorescence, corrected for autofluorescence)	IC50 (PANC-1 cells [2]) [nM]	Maximum tolerated dose (MTD) [3] [mg/kg]	IC50 (PANC-1 cells [4]; Homo sapiens, PANC-1, read-out: IC50 (impedimetry)) [nM]	Animal weight decrease compared to start of the experiment ([5]; free Dau 1 mg/kg i.p., 3 treatments, day 28 after cell inoculation) [%]	Decrease of average liver/body weight ratio vs control ([5]; free Dau 1 mg/kg i.p., three times, day 28 after cell inoculation) [%]	Inhibition of tumor growth (tumor volume) ([5]; free Dau 1 mg/kg i.p., day 28 after cell inoculation (day 19 of treatment)) [%]	Liver / body weight (printed in Figure 9D, %) ([5]; free Dau 1 mg/kg, three treatments, day 28, relative to control) [%]	Viability (%) at 10-5 M concentration, after 72 h incubation, EBC-1 (EBC-1 cells) [%]	Viability (%) at 10-5 M concentration, after 72 h incubation, Colo-205 (Colo-205 cells) [%]	Viability (%) at 10-5 M concentration, after 72 h incubation, A2058 (A2058 cells) [%]	Acute and chronic toxicity (body weight, general looking, behavior) [6]	Cell viability at 10^−6 M (PANC-1 cells [4]; 24 h, 1e-6 M)	Viability after 24 h (PANC-1 cells [4]; 24 h, 1e-5 M) [%]
COc1cccc2c1C(=O)c1c(O)c3c(c(O)c1C2=O)C[C@@](O)(C(C)=O)C[C@@H]3O[C@H]1C[C@H](N)[C@H](O)[C@H](C)O1 [Dau, Daunomycin]	702.048 ± 84.340	72.057 ± 3.907	179	1 to 2	189	21	29.1	35.7	70.9	–	–	–	–	–	–
COc1cccc2c1C(=O)c1c(O)c3c(c(O)c1C2=O)C[C@@](O)(C(C)=NOCC(=O)NCCCC[C@H](NC(=O)CNC(=O)[C@H](CC(C)C)NC(=O)[C@H](Cc1ccccc1)NC(=O)CNC(=O)CON=C(C)[C@]1(O)Cc2c(O)c4c(c(O)c2[C@@H](O[C@H]2C[C@H](N)[C@H](O)[C@H](C)O2)C1)C(=O)c1c(OC)cccc1C4=O)C(=O)N[C@@H](CO)C(=O)N[C@@H](CCCCN)C(=O)N[C@@H](C)C(=O)N[C@@H](C)C(=O)N[C@@H](CCCCN)C(=O)N[C@@H](CC(N)=O)C(=O)O)C[C@@H]3O[C@H]1C[C@H](N)[C@H](O)[C@H](C)O1 [conjugate 4, Dau=Aoa-GFLG-K(Dau=Aoa)SKAAKN-OH] ({Daunorubicin(13-NOCH2CO)}-GFLGK(Daunorubicin(13-NOCH2CO))SKAAKN-OH)	–	–	–	–	–	–	–	–	–	32.2 ± 4.2	19.8 ± 0.5	29.8 ± 4.5	not toxic at the applied concentrations	higher than 100%	91

From article PMC7355684 (Pharmaceutics, 2020)
